Data as given in patent US20260308145A1, “CDK2 INHIBITORS AND METHODS OF USING SAME” (Shenzhen lonova Life Science Co., Ltd., priority 2023, published 2026).

How the values were obtained:
Type in all cases: biochemical
CDK2/cyclinE1 = target: T1, CDK2/cyclinE1 (Homo sapiens, UniProt P24941); experiment: Cyclin-dependent kinase activity assay (continuous ATP coupling assay), CDK2/cyclinE1; settings: CDK2/cyclinE1 5 nM, ATP 300 μM, Rb copeptide 100 μM, 15 min preincubation, pH 7.5, 1% DMSO
T1 construct: purchased Carna Biosciences 04-165
Description: (§1) Cyclin-dependent kinase activity assay was measured by continuous ATP coupling assay in which ADP generated by kinase catalyzed phosphorylation was converted back to ATP by consuming phosphoenolpyruvate (PEP) and NADH catalyzed by pyruvate kinase/lactate dehydrogenase (PK/LDH). The assay compositions (see, Table 1) consist of one of the kinases, including CDK1/cyclinB1, CDK2/cyclinE1, CDK4/cyclinD3, and CDK6/cyclinD3 at the designated concentration, ATP at the corresponding Km of the kinase, copeptide and the ATP coupling system of PEP, NADH and PK/LDH. The assay was conducted in a reaction buffer of 20 mM Tris (pH 7.5) with 50 mM NaCl, 0.5 mM DTT and 0.04% BSA, and results were monitored continuously by fluorescence decrease of NADH with excitation at 340 nm and emission at 460 nm. Linear regression of the resulting reaction time traces gave reaction velocities.
(§2) For inhibition assay, compounds were first serial diluted in a 1:3 ratio from 10 μM to 0.05 nM using 10× reaction buffer. One of the CDK kinase was then introduced to compounds solution and incubated for 15 min. Finally, the compositions of ATP coupling system were introduced to the resulting solution to initiate the reaction. The final reaction mixture was in 1× reaction assay buffer with 1% DMSO. The half-maximal inhibition concentrations (IC50) for compounds were determined by fitting the plots of reaction velocity against compound concentration with 4-variable IC50 equation. The inhibition constants (Ki) were determined by fitting the same plots with quadratic/Morrison equation. Data were analyzed using commercially available software Graphpad Prism.
(§3) Exemplary results are presented as calculated IC50 values. • A: IC50≤10 nM • B: IC50>10 nM and IC50<100 nM • C: IC50≥100 nM

CDK1/cyclinB1 = target: T2, CDK1/cyclinB1 (Homo sapiens, UniProt P06493); experiment: Cyclin-dependent kinase activity assay (continuous ATP coupling assay), CDK1/cyclinB1; settings: CDK1/cyclinB1 10 nM, ATP 200 μM, Histone1 copeptide 100 μM, 15 min preincubation, pH 7.5, 1% DMSO
T2 construct: purchased Carna Biosciences 04-102
Description: as §1, §2, §3

CDK4/cyclinD3 = target: T3, CDK4/cyclinD3 (Homo sapiens, UniProt P11802); experiment: Cyclin-dependent kinase activity assay (continuous ATP coupling assay), CDK4/cyclinD3; settings: CDK4/cyclinD3 60 nM, ATP 500 μM, Rb copeptide 500 μM, 15 min preincubation, pH 7.5, 1% DMSO
T3 construct: purchased Carna Biosciences 04-105
Description: as §1, §2, §3

CDK6/cyclinD3 = target: T4, CDK6/cyclinD3 (Homo sapiens, UniProt Q00534); experiment: Cyclin-dependent kinase activity assay (continuous ATP coupling assay), CDK6/cyclinD3; settings: CDK6/cyclinD3 25 nM, ATP 500 μM, Rb copeptide 500 μM, 15 min preincubation, pH 7.5, 1% DMSO
T4 construct: purchased Carna Biosciences 04-107
Description: as §1, §2, §3

T2 sequence (P06493 whole entry): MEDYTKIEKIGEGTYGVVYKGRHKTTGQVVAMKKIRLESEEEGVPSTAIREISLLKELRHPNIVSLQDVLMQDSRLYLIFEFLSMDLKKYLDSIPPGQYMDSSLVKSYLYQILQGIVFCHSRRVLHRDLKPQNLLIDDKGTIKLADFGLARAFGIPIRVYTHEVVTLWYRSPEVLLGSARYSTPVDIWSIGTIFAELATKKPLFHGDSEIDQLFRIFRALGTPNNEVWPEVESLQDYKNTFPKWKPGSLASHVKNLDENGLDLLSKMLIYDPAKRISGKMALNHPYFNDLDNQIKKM
T2 sequence (P14635 whole entry partner): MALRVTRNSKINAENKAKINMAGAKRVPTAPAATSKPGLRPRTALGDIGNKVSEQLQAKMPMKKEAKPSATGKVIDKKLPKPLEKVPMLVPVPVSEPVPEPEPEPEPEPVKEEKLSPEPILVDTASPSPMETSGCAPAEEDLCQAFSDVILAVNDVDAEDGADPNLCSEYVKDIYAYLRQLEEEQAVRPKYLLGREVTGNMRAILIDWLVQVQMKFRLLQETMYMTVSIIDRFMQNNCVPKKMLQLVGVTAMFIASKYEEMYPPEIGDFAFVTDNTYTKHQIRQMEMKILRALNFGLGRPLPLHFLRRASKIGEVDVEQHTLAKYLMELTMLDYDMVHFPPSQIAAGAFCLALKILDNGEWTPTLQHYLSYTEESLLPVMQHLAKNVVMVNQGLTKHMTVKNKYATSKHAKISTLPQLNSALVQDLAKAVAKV
T4 sequence (Q00534 whole entry): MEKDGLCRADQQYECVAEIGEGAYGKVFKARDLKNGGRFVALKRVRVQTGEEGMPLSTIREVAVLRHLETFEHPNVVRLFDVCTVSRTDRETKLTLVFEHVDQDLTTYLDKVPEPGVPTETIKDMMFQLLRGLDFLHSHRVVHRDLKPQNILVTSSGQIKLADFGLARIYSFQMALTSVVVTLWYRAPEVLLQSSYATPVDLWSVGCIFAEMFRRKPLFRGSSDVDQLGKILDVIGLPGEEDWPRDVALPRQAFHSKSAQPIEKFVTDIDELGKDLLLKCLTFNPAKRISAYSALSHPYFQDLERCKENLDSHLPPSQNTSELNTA
T4 sequence (P30281 whole entry partner): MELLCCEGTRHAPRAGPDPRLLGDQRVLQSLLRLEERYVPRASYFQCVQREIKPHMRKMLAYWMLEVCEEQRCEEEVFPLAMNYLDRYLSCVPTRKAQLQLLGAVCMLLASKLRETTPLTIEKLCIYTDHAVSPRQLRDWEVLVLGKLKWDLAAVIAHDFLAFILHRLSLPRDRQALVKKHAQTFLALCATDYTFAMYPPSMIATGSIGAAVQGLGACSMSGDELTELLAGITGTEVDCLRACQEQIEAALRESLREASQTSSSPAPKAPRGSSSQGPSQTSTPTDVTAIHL
T3 sequence (P11802 whole entry): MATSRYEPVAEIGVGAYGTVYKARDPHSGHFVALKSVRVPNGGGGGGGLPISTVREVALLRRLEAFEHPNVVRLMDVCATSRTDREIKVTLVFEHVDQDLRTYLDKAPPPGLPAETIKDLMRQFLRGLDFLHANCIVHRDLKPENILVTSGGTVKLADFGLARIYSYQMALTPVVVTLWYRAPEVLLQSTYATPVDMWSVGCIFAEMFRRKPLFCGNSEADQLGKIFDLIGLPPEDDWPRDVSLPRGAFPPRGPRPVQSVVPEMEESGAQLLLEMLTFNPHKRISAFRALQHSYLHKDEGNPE
T3 sequence (P30281 whole entry partner): as the sequence (P30281 whole entry partner) above

| IC50 (CDK2/cyclinE1) [nM] | IC50 (CDK1/cyclinB1) [nM] | IC50 (CDK4/cyclinD3) [nM] | IC50 (CDK6/cyclinD3) [nM] | Compound |
| --- | --- | --- | --- | --- |
| 10 to 100 | ≥ 100 | ≥ 100 | ≥ 100 | CNS(=O)(=O)c1ccc(Nc2ncc(C)c(-n3cccn3)n2)cc1 [Example 22] |
| ≥ 100 | ≥ 100 | ≥ 100 | ≥ 100 | CNS(=O)(=O)c1ccc(Nc2nccc(-n3cccn3)n2)cc1 [Example 23] |
| 10 to 100 | ≥ 100 | ≥ 100 | ≥ 100 | CNS(=O)(=O)c1ccc(Nc2ncc(Cl)c(-n3cccn3)n2)cc1 [Example 24] |
| ≤ 10 | ≥ 100 | ≥ 100 | ≥ 100 | CNS(=O)(=O)c1ccc(Nc2ncc(Br)c(-n3cccn3)n2)cc1 [Example 25] |
| 10 to 100 | ≥ 100 | ≥ 100 | ≥ 100 | CNS(=O)(=O)c1ccc(Nc2ncc(C#N)c(-n3cccn3)n2)cc1 [Example 26] |
| ≥ 100 | ≥ 100 | ≥ 100 | ≥ 100 | CNS(=O)(=O)c1ccc(Nc2ncc(C(F)(F)F)c(-n3cccn3)n2)c(F)c1 [Example 27] |
| 10 to 100 | ≥ 100 | ≥ 100 | ≥ 100 | NS(=O)(=O)c1ccc(Nc2ncc(C(F)(F)F)c(-n3cccn3)n2)c(F)c1 [Example 28] |
| ≥ 100 | ≥ 100 | ≥ 100 | ≥ 100 | CC1(Nc2ncc(C(F)(F)F)c(-n3cccn3)n2)CCN(S(C)(=O)=O)CC1 [Example 29] |
| 10 to 100 | ≥ 100 | ≥ 100 | ≥ 100 | O=S(=O)(NC1CC1)c1ccc(Nc2ncc(C(F)(F)F)c(-n3cccn3)n2)cc1 [Example 30] |

The next lines start with the compound.

| Compound | IC50 (CDK2/cyclinE1) [nM] | IC50 (CDK1/cyclinB1) [nM] | IC50 (CDK4/cyclinD3) [nM] | IC50 (CDK6/cyclinD3) [nM] |
| --- | --- | --- | --- | --- |
| CNS(=O)(=O)c1ccc(Nc2ncc(C(F)(F)F)c(-n3cc(C4=CCCC4)cn3)n2)cc1 [Example 12, 4-((4-(4-(cyclopent-1-en-1-yl)-1H-pyrazol-1-yl)-5-(trifluoromethyl)pyrimidin-2-yl)amino)-N-methylbenzenesulfonamide] | 10 to 100 | ≥ 100 | 10 to 100 | ≥ 100 |
| CNS(=O)(=O)c1ccc(Nc2ncc(C(F)(F)F)c(-n3cc(C4CCNCC4)cn3)n2)cc1 [Example 13] | ≤ 10 | 10 to 100 | 10 to 100 | 10 to 100 |
| CNS(=O)(=O)c1ccc(Nc2ncc(C(F)(F)F)c(-n3cc(C4CCN(C(C)=O)CC4)cn3)n2)cc1 [Example 14] | 10 to 100 | ≥ 100 | 10 to 100 | ≥ 100 |
| CNS(=O)(=O)c1ccc(Nc2ncc(C(F)(F)F)c(-n3cc(C4CNC4)cn3)n2)cc1 [Example 15] | ≤ 10 | 10 to 100 | 10 to 100 | 10 to 100 |
| CNS(=O)(=O)c1ccc(Nc2ncc(C(F)(F)F)c(-n3cccn3)n2)cc1 [Example 16, N-methyl-4-[[4-pyrazol-1-yl-5-(trifluoromethyl)pyrimidin-2-yl]amino]benzene sulfonamide] | ≤ 10 | ≥ 100 | ≥ 100 | ≥ 100 |
| [2H]C([2H])([2H])NS(=O)(=O)c1ccc(Nc2ncc(C(F)(F)F)c(-n3cccn3)n2)cc1 [Example 17] | ≤ 10 | ≥ 100 | ≥ 100 | ≥ 100 |
| NS(=O)(=O)c1ccc(Nc2ncc(C(F)(F)F)c(-n3cccn3)n2)cc1 [Example 18] | ≤ 10 | ≥ 100 | ≥ 100 | ≥ 100 |
| CS(=O)(=O)N1CCC(Nc2ncc(C(F)(F)F)c(-n3cccn3)n2)CC1 [Example 19] | ≤ 10 | ≥ 100 | 10 to 100 | 10 to 100 |
| CNS(=O)(=O)c1ccc(Nc2ncc(C(F)F)c(-n3cccn3)n2)cc1 [Example 20] | 10 to 100 | ≥ 100 | ≥ 100 | ≥ 100 |
| CNS(=O)(=O)c1ccc(Nc2ncc(F)c(-n3cccn3)n2)cc1 [Example 21] | 10 to 100 | ≥ 100 | ≥ 100 | ≥ 100 |
